According to PubChem BioAssay AID1919003 (Molecular Pharmacology Branch, DTP, NCI, 2023):

Test system: 786-0 complex spheroids with HUVEC/MSC, growth % test/control
Test: Anticancer human tumor 786-0 cell line growth inhibition [AhR];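 note: compound exposure lasted seven days before the read-out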
Conditions: for IC50: curve of first compound; for viability, T/C: stronger effect = lower value
How it was run: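 Spheroids combined tumor cells with HUVEC endothelial cells and human MSCs as stroma. AhR antagonists were paired with standard or investigational drugs, each dosed in half-log steps down from near clinical Cmax, or from 10 microM where Cmax was unknown.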

Q: Which results are given for `CC[C@@]1(O)C(=O)OCc2c1cc1n(c2=O)Cc2cc3c(CN(C)C)c(O)ccc3nc2-1` + Cc1ccccc1N=Nc1ccc(NC(=O)c2ccnn2C)c(C)c1?
A: IC50 (second compound 0.1 µM): 48.5 nM; IC50 (second compound 0.316 µM): 41 nM; IC50 (second compound 1 µM): 38.8 nM; IC50 (second compound 3.16 µM): 30.9 nM; IC50 (second compound 10 µM): 27 nM; viability, T/C (second compound 0.1 µM, first compound 0.000316 µM): 107%; viability, T/C (second compound 0.1 µM, first compound 0.001 µM): 103%; viability, T/C (second compound 0.1 µM, first compound 0.00316 µM): 104%; viability, T/C (second compound 0.1 µM, first compound 0.01 µM): 109%; viability, T/C (second compound 0.1 µM, first compound 0.0316 µM): 68.1%; viability, T/C (second compound 0.1 µM, first compound 0.1 µM): 19.6%; viability, T/C (second compound 0.316 µM, first compound 0.000316 µM): 101%; viability, T/C (second compound 0.316 µM, first compound 0.001 µM): 99.4%; viability, T/C (second compound 0.316 µM, first compound 0.00316 µM): 107%; viability, T/C (second compound 0.316 µM, first compound 0.01 µM): 103%; viability, T/C (second compound 0.316 µM, first compound 0.0316 µM): 59.8%; viability, T/C (second compound 0.316 µM, first compound 0.1 µM): 16.6%; viability, T/C (second compound 1 µM, first compound 0.000316 µM): 102%; viability, T/C (second compound 1 µM, first compound 0.001 µM): 101%; viability, T/C (second compound 1 µM, first compound 0.00316 µM): 106%; viability, T/C (second compound 1 µM, first compound 0.01 µM): 103%; viability, T/C (second compound 1 µM, first compound 0.0316 µM): 57.3%; viability, T/C (second compound 1 µM, first compound 0.1 µM): 15.9%; viability, T/C (second compound 3.16 µM, first compound 0.000316 µM): 96.4%; viability, T/C (second compound 3.16 µM, first compound 0.001 µM): 101%; viability, T/C (second compound 3.16 µM, first compound 0.00316 µM): 93.4%; viability, T/C (second compound 3.16 µM, first compound 0.01 µM): 92.3%; viability, T/C (second compound 3.16 µM, first compound 0.0316 µM): 49.1%; viability, T/C (second compound 3.16 µM, first compound 0.1 µM): 18.7%; viability, T/C (second compound 10 µM, first compound 0.000316 µM): 90.7%; viability, T/C (second compound 10 µM, first compound 0.001 µM): 89.5%; viability, T/C (second compound 10 µM, first compound 0.00316 µM): 86.4%; viability, T/C (second compound 10 µM, first compound 0.01 µM): 83.6%; viability, T/C (second compound 10 µM, first compound 0.0316 µM): 44.6%; viability, T/C (second compound 10 µM, first compound 0.1 µM): 16.7%

Q: Which IC50 (second compound 0.1 µM) does the source give for `CCc1c2c(nc3ccc(O)cc13)-c1cc3c(c(=O)n1C2)COC(=O)[C@]3(O)CC` + Cc1ccccc1N=Nc1ccc(NC(=O)c2ccnn2C)c(C)c1 here?
A: The IC50 was 6.1 nM.

Q: What about the IC50 (second compound 0.316 µM) of the same compound?
A: The IC50 was 6.33 nM.

Q: And the IC50 (second compound 1 µM)?
A: The IC50 was 6.39 nM.

Q: And the IC50 (second compound 3.16 µM)?
A: The IC50 was 6.1 nM.

Q: What about the IC50 (second compound 10 µM) of the same compound?
A: The IC50 was 5.18 nM.

Q: And the viability, T/C (second compound 0.1 µM, first compound 0.000949 µM)?
A: The viability, T/C was 106%.

Q: What about the viability, T/C (second compound 0.1 µM, first compound 0.003 µM) of the same compound?
A: Its viability, T/C is 96.2%.

Q: And the viability, T/C (second compound 0.1 µM, first compound 0.00949 µM)?
A: The viability, T/C was 21.1%.

Q: What about the viability, T/C (second compound 0.1 µM, first compound 0.03 µM) of the same compound?
A: Its viability, T/C is 9.38%.

Q: What about the viability, T/C (second compound 0.1 µM, first compound 0.0949 µM) of the same compound?
A: The viability, T/C was 3.43%.

Q: And the viability, T/C (second compound 0.1 µM, first compound 0.3 µM)?
A: Its viability, T/C is 4.01%.

Q: What about the viability, T/C (second compound 0.316 µM, first compound 0.000949 µM) of the same compound?
A: The viability, T/C was 107%.

Q: What about the viability, T/C (second compound 0.316 µM, first compound 0.003 µM) of the same compound?
A: Its viability, T/C is 106%.

Q: What about the viability, T/C (second compound 0.316 µM, first compound 0.00949 µM) of the same compound?
A: The viability, T/C was 19.7%.

Q: What about the viability, T/C (second compound 0.316 µM, first compound 0.03 µM) of the same compound?
A: The viability, T/C was 9.77%.

Q: And the viability, T/C (second compound 0.316 µM, first compound 0.0949 µM)?
A: Its viability, T/C is 4.26%.

Q: What about the viability, T/C (second compound 0.316 µM, first compound 0.3 µM) of the same compound?
A: Its viability, T/C is 3.54%.

Q: And the viability, T/C (second compound 1 µM, first compound 0.000949 µM)?
A: The viability, T/C was 101%.

Q: And the viability, T/C (second compound 1 µM, first compound 0.003 µM)?
A: Its viability, T/C is 102%.

Q: And the viability, T/C (second compound 1 µM, first compound 0.00949 µM)?
A: Its viability, T/C is 22.9%.

Q: And the viability, T/C (second compound 1 µM, first compound 0.03 µM)?
A: The viability, T/C was 10.2%.

Q: And the viability, T/C (second compound 1 µM, first compound 0.0949 µM)?
A: Its viability, T/C is 4.47%.

Q: And the viability, T/C (second compound 1 µM, first compound 0.3 µM)?
A: The viability, T/C was 2.91%.

Q: And the viability, T/C (second compound 3.16 µM, first compound 0.000949 µM)?
A: The viability, T/C was 98.1%.

Q: What about the viability, T/C (second compound 3.16 µM, first compound 0.003 µM) of the same compound?
A: The viability, T/C was 95.6%.

Q: What about the viability, T/C (second compound 3.16 µM, first compound 0.00949 µM) of the same compound?
A: The viability, T/C was 21.6%.

Q: What about the viability, T/C (second compound 3.16 µM, first compound 0.03 µM) of the same compound?
A: The viability, T/C was 8.98%.

Q: And the viability, T/C (second compound 3.16 µM, first compound 0.0949 µM)?
A: Its viability, T/C is 4.32%.

Q: And the viability, T/C (second compound 3.16 µM, first compound 0.3 µM)?
A: The viability, T/C was 3.54%.

Q: What about the viability, T/C (second compound 10 µM, first compound 0.000949 µM) of the same compound?
A: The viability, T/C was 89.7%.

Q: And the viability, T/C (second compound 10 µM, first compound 0.003 µM)?
A: The viability, T/C was 78.8%.

Q: What about the viability, T/C (second compound 10 µM, first compound 0.00949 µM) of the same compound?
A: Its viability, T/C is 18.1%.

Q: And the viability, T/C (second compound 10 µM, first compound 0.03 µM)?
A: The viability, T/C was 8.91%.

Q: What about the viability, T/C (second compound 10 µM, first compound 0.0949 µM) of the same compound?
A: Its viability, T/C is 4.41%.

Q: And the viability, T/C (second compound 10 µM, first compound 0.3 µM)?
A: Its viability, T/C is 3.24%.
